The source of these data is US20040133008A1, “Amide compounds” (FUJISAWA PHARMACEUTICAL CO., LTD., priority 2002, published 2004).

Molecules are shown by their SMILES.

One experiment relates to Apo B secretion. Description: Measurement of Inhibition of Apo B Secretion. It counts as cell-based. The note with it: Homo sapiens; HepG2 cells, 10^−8 M test compound, 15-hour incubation, Apo B in media by ELISA, 0.1% DMSO treated cells as controls. As for the experimental part: Test 1: Measurement of Inhibition of Apo B Secretion
HepG2 cells were seeded in Eagles medium containing 10% fetal calf serum (FCS) at a density of 30000 cells/well in 96-well plates and allowed to grow for 3 days before treatment. At this time, the medium was replaced with fresh medium containing 0.1% dimethyl sulfoxide (DMSO) and the indicated concentrations of a test compound. After 15-hour incubation, the amount of Apo B and Apo AI accumulated in the media was determined by ELISA.
The assay was carried out at ambient temperature. A flat bottomed micro ELISA plate (manufactured by Nunc) was coated with an anti Apo B monoclonal antibody solution ([…] in 0.05% carbonate buffer, pH 9.6) by adding the antibody solution at a volume of 100 μl per well. After 1-hour incubation on a plate mixer, the unbound materials were removed by washing the well 3 times with a washing buffer (phosphate buffered saline, pH 7.2 containing 0.1% bovine serum albumin and 0.05% Tween-20). Then 20 μl of […] and 100 μl of a solution of peroxidase coupled anti Apo B antibody were added. After 1-hour incubation on a plate mixer, washing was performed 3 times to remove the unbound materials. A freshly prepared substrate solution (2.5 mg/ml ortho-phenylene diamine and 0.018% H2O2 in 0.11 M Na2HPO4-0.044 M sodium citrate buffer, pH 5.4) at a volume of 200 μl was then added to each well. After 20-minute incubation, the enzyme reaction was terminated by adding 50 μl of 0.5 M sulfuric acid. Absorbance of each well was determined at 490 nm using a microplate reader. Apo B concentration was calculated from a standard curve generated from purified Apo B standard that was run in parallel in the same plate. Inhibition of Apo B secretion by the test compound was calculated taking 0.1% DMSO treated cells as controls.
Measurement of Apo AI was performed similar to that of Apo B, except for diluting the sample 11-fold with a dilution buffer (phosphate buffered saline, pH 7.2 containing 0.5% bovine serum albumin and 0.05% Tween-20).
Apo B secretion inhibitors are identified as compounds that decrease Apo B secretion without affecting the secretion of Apo AI.
For orientation: An ELISA detects its analyte on a solid surface through an enzyme-linked reagent.

Another experiment concerns ddY-mice. Nature of the experiment: Lipid Lowering Effect on ddY-Mice. It counts as in vivo. Conditions: male ddY-mice, dose 0.32 mg/kg orally in olive oil, plasma TG 2 hours after administration; (TG increase in drug treated group/TG increase in control group)×100. As for the experimental part: Test 2: Lipid Lowering Effect on ddY-Mice
Male ddY-mice were housed in temperature- and humidity-controlled rooms and fed with laboratory chow. The animals were randomized according to their body weight and food was deprived about 16 hours before experiment. Baseline blood sample was collected from the retro orbital venous plexus then the animals were orally dosed with drugs in olive oil (10 ml/kg). For control group, 10 ml/kg of olive oil was loaded orally. Blood samples were drawn at 2 hours after drug administration for the measurement of triglyceride (TG) elevation. Plasma TG was determined by conventional enzyme method (The triglyceride E-test Wako).
Lipid lowering effects were shown in percent of the TG increase in drug treated group, relative to the TG increase in control group.
Lipid lowering effect(%)=(TG increase in drug treated group/TG increase in control group)×100

In turn, `Cc1ccc(C(=O)Nc2ccc(NCCc3ccccn3)cc2)c(N(C)C)c1` [Example 42, 2-(Dimethylamino)-4-methyl-N-(4-{[2-(2-pyridinyl)ethyl]amino}phenyl)benzamide] yielded an inhibition at 0.01 µM in the experiment on Apo B secretion of 85.8%. Moreover, the “TG increase relative to control (%)” value in the experiment with ddY-mice amounted to 33%. Turning to `CC1CCN(c2ncccc2C(=O)Nc2ccc(NCCc3ccccn3)cc2)CC1` [Example 54, 2-(4-Methyl-1-piperidinyl)-N-(4-{[2-(2-pyridinyl)ethyl]amino}phenyl)nicotinamide], testing at 0.01 µM in the experiment on Apo B secretion gave an inhibition of 86.3%. Besides, the “TG increase relative to control (%)” value in the experiment with ddY-mice is given as 28%.

The molecule `Cc1ccc(C(=O)Nc2ccc(NCCn3cccn3)cc2)c(N(C)C)c1` [Example 183, 2-(dimethylamino)-4-methyl-N-(4-{[2-(1H-pyrazol-1-yl)ethyl]amino}phenyl)benzamide] came in with an inhibition at 0.01 µM in the experiment with Apo B secretion of 81.2%. For the same molecule, the “TG increase relative to control (%)” value with ddY-mice turned out to be 27%.

As to `Cc1ccc(C(=O)Nc2ccc(NC(=O)Cn3cccn3)cc2)c(N2CCC(C)CC2)n1` [Example 193, 6-methyl-2-(4-methyl-1-piperidinyl)-N-{4-[(1H-pyrazol-1-ylacetyl)amino]phenyl}nicotinamide], the inhibition at 0.01 µM with Apo B secretion turned out to be 71.5%. Molecule `Cc1ccc(C(=O)Nc2ccc(NC(=O)C(C)c3ccccn3)cc2)c(N2CCC(C)CC2)n1` (centres unmarked) [Example 415, 6-Methyl-2-(4-methyl-1-piperidinyl)-N-(4-{[2-(2-pyridinyl)propanoyl]amino}phenyl)nicotinamide] had an inhibition at 0.01 µM in the experiment with Apo B secretion of 76.2%. In the experiment with Apo B secretion, `CN(C)c1cc(Cl)ccc1C(=O)Nc1ccc(NCCc2cccc(N)n2)cc1` [Example 435, N-(4-{[2-(6-Amino-2-pyridinyl)ethyl]amino}phenyl)-4-chloro-2-(dimethylamino)benzamide] showed an inhibition at 0.01 µM of 85.9%. Further, the “TG increase relative to control (%)” value in the experiment with ddY-mice was determined as 52%. In the experiment with Apo B secretion, `CCc1ccc(C(=O)Nc2ccc(NCCn3cccn3)cc2)c(N(C)C)c1` [Example 473, 2-(Dimethylamino)-4-ethyl-N-(4-{[2-(1H-pyrazol-1-yl)ethyl]amino}phenyl)benzamide] registered an inhibition at 0.01 µM of 75.7%.

One may read the inhibition as the percentage by which the read-out fell short of the control. Low readings indicate little suppression, high ones strong suppression.
